In patent US10842892B2, “Methods and apparatus for synthesizing imaging agents, and intermediates thereof” (Lantheus Medical Imaging, Inc., priority 2010, dated 2020):

Assays:
[1] = test system: healthy adults; experiment: clinical safety evaluation after single dose at rest; assay type: in vivo, human; conditions: 13 healthy adults
Description: This was a non-randomized, open-label, single-dose study. A total of 13 healthy adult subjects were enrolled and administered a single dose of imaging agent 1 at a single study center in the United States. Subjects were screened within 14 days prior to enrollment to confirm subject eligibility, and began baseline assessments at the study center the day before study drug administration. Subjects remained at the study center until completion of the Study Day 2 safety assessments (24±8 hours post-dose). A telephone call was made to study subjects 48±8 hours post-dose for adverse event (AE) monitoring. All subjects returned to the study center approximately one week (5-7 days) post-dose for a follow-up safety visit, and were contacted by telephone approximately 14-17 days post-dose for final serious AE monitoring.

[2] = early elimination of ^18F in urine; assay type: in vivo, human
Description: Urine collected pre-dose (Baseline), and all voids up to 8 hours post-dose were collected and assayed for ^18F. However, as in blood collection, the urine collection terminated near the 7-hour minimum specified in the protocol. Mean urinary excretion over the approximate 7-hour void interval was 4.83% ID with a % CV of 64.7 and a range of 0.64% ID to 12.41% ID. This finding is in reasonable agreement with cumulative urine excretion of 5% as measured with PET imaging.

[3] = test system: blood brain barrier (BBB); experiment: brain uptake with and without blood brain barrier disruption; assay type: in vivo, rat; conditions: rat
Description: Male Sprague-Dawley rats were anesthetized with sodium pentobarbital and the left external carotid artery was cannulated close to the internal and external carotid bifurcation. Using saline as control and 25% D-mannitol as hypertonic solution, each were perfused retrogradely in six animals (0.3 mL/kg/sec) for 30 seconds. Two minutes later, ˜1 mCi imaging agent 1 was injected via tail vein and the brain was imaged with a microPET camera for 30 minutes. […] Following completion of imaging, the brain was harvested, photographed and dissected into left and right hemispheres and cerebellum. The tissue content of imaging agent 1 radioactivity was measured by gamma counter and Evans blue levels were determined by fluorescence method for calculation of the % injected dose/gram tissue and μg Evan blue/gram tissue, respectively.

[4] = test system: chronic myocardial infarct (MI); experiment: cardiac PET imaging in control and chronic myocardial infarct rabbits; assay type: in vivo; conditions: MI rabbit, images 20-30 min after injection
Text: Male New Zealand rabbits (body weight 2.5-3.5 kg) were purchased from Harlan (Oakwood, Mich.) and maintained in the AAALAC-accredited Animal Care Facility at Lantheus Medical Imaging. The study protocol was approved by the Institutional Animal Care and Use Committee. The procedure of developing a rabbit model of myocardial infarction (MI) was similar to the method described previously (Fujita M, Morimoto Y, Ishihara M, Shimizu M, Takase B, Maehara T et al. A new rabbit model of myocardial infarction without endotracheal intubation. J Surg Res 2004; 116:124-8). Briefly, the rabbit was anesthetized with ketamine (40 mg/Kg, im) and xylazine (9 mg/Kg, im) and placed in a supine position. The surgery was performed under aseptic conditions. A mid-sternotomy was performed carefully to avoid injury of parietal pleura. The pericardial sac was exposed and incised. […]
PET images and cardiovascular parameters were evaluated in both normal and MI rabbits. […] In addition, electrocardiogram (ECG) was also recorded with 3 non-invasive limb leads in lead II configuration using the BIOPAC system. […] After a stabilization period, cardiovascular parameters: MAP, SBP, DBP and ECG, were recorded 5 minutes before imaging agent 1 intravenous injection (˜1.5 mCi) and the recording continued for additional 20 minutes post-injection. […]

Structure (SMILES): CC(C)(C)n1ncc(OCc2ccc(COCC[18F])cc2)c(Cl)c1=O [imaging agent 1, 2-t-butyl-4-chloro-5-[4-(2-(^18F)fluoroethoxymethyl)-benzyloxy]-2H-pyridazin-3-1]
- changes from baseline in vital signs, laboratory values, ECGs and EEGs [1]: not clinically significant
- potential cardiotoxicity (coagulation studies, Troponin-T levels) [1]: not exhibited
- tolerability [1]: well-tolerated and no clinically significant safety concerns were raised
- Mean urinary excretion ([2]; approximate 7-hour void interval): 4.83 % ID
- cumulative urine excretion as measured with PET imaging ([2]; in vivo): 5%
- BBB permeability [3]: high BBB permeability
- perfusion defect area in the left ventricular wall [4]: clearly detected
